Patent publication US20050202511A1, “AMP-activated protein kinase (AMPK) inhibitor screening assay” (priority 2002, published 2005)
“And” between values parts separate entries of the source, which are not always exact repeats. Equal values may be shown once. Read-outs that look alike come from different tables or passages of the source.

Legend:
CLC2 CBS1-2 (G715E) = biological target: T1, CLC2 CBS1-2 (G715E) (Homo sapiens, UniProt P51788, G715E); assay: Filter binding assay, GST-CBS domain fusion; details: single-site model
T1 construct: DNAs encoding residues 582-840 of CLC2; made in house; host or cells: E. coli BL21 (DE3)
T1 sequence (P51788 582-840 G715E): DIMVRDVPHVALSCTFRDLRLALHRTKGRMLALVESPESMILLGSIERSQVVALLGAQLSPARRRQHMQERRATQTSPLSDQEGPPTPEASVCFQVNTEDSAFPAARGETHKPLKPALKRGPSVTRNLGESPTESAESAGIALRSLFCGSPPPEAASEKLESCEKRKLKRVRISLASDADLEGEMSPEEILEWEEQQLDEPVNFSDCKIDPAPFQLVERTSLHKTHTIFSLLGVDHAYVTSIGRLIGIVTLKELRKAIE
Source text: (§1) DNA encoding the CBS domain pair from the chloride channel CLC2 was also cloned and expressed. […] The G715E mutation, in the linker between the first and second CBS domains of CLC2, is associated with idiopathic generalized epilepsy (29), while the G826D mutation is in an equivalent position in the second CBS domain to the G859D mutation in CLC1 that is associated with congenital myotonia (28).
(§2) For IMPDH2, DNAs encoding residues 112-232 or the full-length protein (1-514) were amplified using human liver cDNA (Clontech) as template, and cloned into pHAT20 (Clontech) using 5′-AgeI and 3′-KpnI sites added to the primers. For the other constructs, DNAs encoding residues 582-840 of CLC2, or 416-551 of cystathionine â-synthase, were amplified using human liver cDNA as template, and cloned into pGEX-KG as above using 5′-BamHI and 3′-XhoI sites added to the primers. All mutations were created using the Stratagene QuikChange Site-directed Mutagenesis system.
(§3) Various concentrations of [^14C]-AMP, [γ^32P] […] Reactions were stopped by spotting 10 ìl onto a Millipore MF Filter Membrane disc and rapidly washing under high vacuum with 1 ml of ice-cold TBS. Radioactivity was determined on the filters by scintillation counting. Non-specific binding (which was trivial) was determined by performing the assay with GST as a control, and was subtracted. […]

[1] = biological target: T2, CLC2 CBS domain pair G826D (Homo sapiens, UniProt P51788, G828D); assay: Filter binding assay, GST-CBS domain fusion; details: single-site model
T2 construct: DNAs encoding residues 582-840 of CLC2; made in house; host or cells: E. coli BL21 (DE3)
T2 sequence (P51788 582-840 G828D): as the sequence (P51788 582-840 G715E) above, with E134G, G247D counted along it
Source text: as §1, §2, §3

[2] = biological target: recombinant á1â1γ2 heterotrimer (Lins) (Homo sapiens, UniProt Q9UGJ0, INS350L); assay: AMPK heterotrimer kinase assay, activation by AMP; type: biochemical; details: immunoprecipitated from CCL13 cells, slow lysis; read-out: A0.5
Sequence of recombinant á1â1γ2 heterotrimer (Lins) (Q9UGJ0 with tags, fused parts or gaps INS350L): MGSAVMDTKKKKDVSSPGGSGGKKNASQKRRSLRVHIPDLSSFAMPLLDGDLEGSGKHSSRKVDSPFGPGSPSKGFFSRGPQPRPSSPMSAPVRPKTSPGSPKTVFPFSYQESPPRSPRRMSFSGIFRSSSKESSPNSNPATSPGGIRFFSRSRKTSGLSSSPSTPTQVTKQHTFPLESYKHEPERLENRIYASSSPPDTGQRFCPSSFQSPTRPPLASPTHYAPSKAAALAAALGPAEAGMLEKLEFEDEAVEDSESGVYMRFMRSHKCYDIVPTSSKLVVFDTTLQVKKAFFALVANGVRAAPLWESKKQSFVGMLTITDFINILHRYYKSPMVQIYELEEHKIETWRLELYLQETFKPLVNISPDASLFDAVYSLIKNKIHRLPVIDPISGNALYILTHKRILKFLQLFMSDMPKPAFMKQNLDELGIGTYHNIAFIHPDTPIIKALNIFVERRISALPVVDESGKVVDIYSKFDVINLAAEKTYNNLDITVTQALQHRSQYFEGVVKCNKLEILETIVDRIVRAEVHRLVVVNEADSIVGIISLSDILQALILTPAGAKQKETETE
Source text: (§4) Plasmids expressing myc-tagged á1, â1 and γ1, γ2 (with or without WPWS mutations) or γ3 were expressed in CCL13 cells and the recombinant complexes immunoprecipitated using anti-myc antibodies.
(§5) For this reason, the estimates of A0.5 for the H383R and T400N mutants are somewhat less accurate than the others, while no value could be obtained for the R531 G mutant. […] With some mutants, the maximal activation also appeared to be affected.
(§6) PCDNA plasmids (14,25,32) encoding á1, â1 and γ1, γ2 or γ3 were expressed in CCL13 cells (25), subject to “rapid lysis”, immunoprecipitated using anti-myc antibody, and assayed as described previously (33). “Slow lysis” of CCL13 cells was as described by Stein et al (34).

[3] = biological target: T3, recombinant á1â1γ2 heterotrimer (T400N) (Homo sapiens, UniProt Q9UGJ0, T400N); assay: AMPK heterotrimer kinase assay, activation by AMP; type: biochemical; details: slow lysis; estimate somewhat less accurate; read-out: A0.5
T3 construct: expressed in transfected cells; host or cells: CCL13 cells
T3 sequence (Q9UGJ0 whole entry T400N): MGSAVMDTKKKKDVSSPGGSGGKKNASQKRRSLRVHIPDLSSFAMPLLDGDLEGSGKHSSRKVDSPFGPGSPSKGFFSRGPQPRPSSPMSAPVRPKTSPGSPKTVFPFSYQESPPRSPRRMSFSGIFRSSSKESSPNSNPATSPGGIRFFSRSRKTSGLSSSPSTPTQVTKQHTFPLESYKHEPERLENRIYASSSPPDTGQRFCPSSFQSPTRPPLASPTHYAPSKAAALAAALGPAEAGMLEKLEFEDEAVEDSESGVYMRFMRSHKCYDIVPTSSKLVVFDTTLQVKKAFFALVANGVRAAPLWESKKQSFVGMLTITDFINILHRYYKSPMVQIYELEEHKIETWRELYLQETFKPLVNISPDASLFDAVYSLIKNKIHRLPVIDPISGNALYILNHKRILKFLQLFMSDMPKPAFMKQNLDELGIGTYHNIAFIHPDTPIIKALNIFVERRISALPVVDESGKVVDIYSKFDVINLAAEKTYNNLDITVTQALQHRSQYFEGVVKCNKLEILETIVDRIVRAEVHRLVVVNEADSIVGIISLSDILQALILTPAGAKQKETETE
T3 sequence (P54645 whole entry partner): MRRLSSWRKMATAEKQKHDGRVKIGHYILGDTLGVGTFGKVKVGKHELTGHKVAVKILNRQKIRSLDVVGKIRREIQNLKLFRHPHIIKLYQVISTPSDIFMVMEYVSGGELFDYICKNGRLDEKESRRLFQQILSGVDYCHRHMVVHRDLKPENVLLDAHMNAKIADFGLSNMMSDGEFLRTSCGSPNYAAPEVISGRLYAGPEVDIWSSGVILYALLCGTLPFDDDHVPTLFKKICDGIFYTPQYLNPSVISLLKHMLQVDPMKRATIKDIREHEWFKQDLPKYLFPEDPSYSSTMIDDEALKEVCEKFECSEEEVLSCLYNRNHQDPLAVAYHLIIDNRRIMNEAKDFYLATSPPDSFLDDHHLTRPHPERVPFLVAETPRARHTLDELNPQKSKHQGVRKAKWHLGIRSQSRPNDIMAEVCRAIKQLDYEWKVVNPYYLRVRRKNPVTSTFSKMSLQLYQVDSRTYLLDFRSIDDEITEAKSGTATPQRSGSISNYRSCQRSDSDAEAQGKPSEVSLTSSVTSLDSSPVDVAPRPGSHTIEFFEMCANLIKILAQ
T3 sequence (P80386 whole entry partner): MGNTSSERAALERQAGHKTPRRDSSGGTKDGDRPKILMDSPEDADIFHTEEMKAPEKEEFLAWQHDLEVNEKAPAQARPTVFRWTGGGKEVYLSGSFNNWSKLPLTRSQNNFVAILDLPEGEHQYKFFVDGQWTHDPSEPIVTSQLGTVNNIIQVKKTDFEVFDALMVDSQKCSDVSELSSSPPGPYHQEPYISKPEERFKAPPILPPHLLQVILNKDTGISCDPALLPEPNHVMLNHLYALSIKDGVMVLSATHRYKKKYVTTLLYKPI
Source text: as §4, §5, §6

[4] = biological target: T4, recombinant á1â1γ2 heterotrimer (R302Q) (Homo sapiens, UniProt Q9UGJ0, R302Q); assay: AMPK heterotrimer kinase assay, activation by AMP; type: biochemical
T4 construct: expressed in transfected cells; host or cells: CCL13 cells
T4 sequence (Q9UGJ0 whole entry R302Q): as the sequence (Q9UGJ0 whole entry T400N) above, with R302Q, N400T counted along it
T4 sequence (P54645 whole entry partner): as the sequence (P54645 whole entry partner) above
T4 sequence (P80386 whole entry partner): as the sequence (P80386 whole entry partner) above
Source text: as §4, §5, §6

[5] = biological target: T5, recombinant á1â1γ2 heterotrimer (R531G) (Homo sapiens, UniProt Q9UGJ0, R531G); assay: AMPK heterotrimer kinase assay, activation by AMP; type: biochemical
T5 construct: expressed in transfected cells; host or cells: CCL13 cells
T5 sequence (Q9UGJ0 whole entry R531G): as the sequence (Q9UGJ0 whole entry T400N) above, with N400T, R531G counted along it
T5 sequence (P54645 whole entry partner): as the sequence (P54645 whole entry partner) above
T5 sequence (P80386 whole entry partner): as the sequence (P80386 whole entry partner) above
Source text: as §4, §5, §6

[6] = biological target: T6, recombinant á1â1γ2 heterotrimer (H383R) (Homo sapiens, UniProt Q9UGJ0, H383R); assay: AMPK heterotrimer kinase assay, activation by AMP; type: biochemical; details: slow lysis; estimate somewhat less accurate; read-out: A0.5
T6 construct: expressed in transfected cells; host or cells: CCL13 cells
T6 sequence (Q9UGJ0 whole entry H383R): as the sequence (Q9UGJ0 whole entry T400N) above, with H383R, N400T counted along it
T6 sequence (P54645 whole entry partner): as the sequence (P54645 whole entry partner) above
T6 sequence (P80386 whole entry partner): as the sequence (P80386 whole entry partner) above
Source text: as §4, §5, §6

IMPDH2 CBS1-2 (R224P) = biological target: T7, IMPDH2 CBS1-2 (R224P) (Homo sapiens, UniProt P12268, R224P); assay: Filter binding assay, isolated CBS domain pair; details: single-site model
T7 construct: DNAs encoding residues 112-232 or the full-length protein (1-514) were amplified; His tag (pHAT20 vector); made in house; host or cells: E. coli
Source text: To examine whether binding of adenine nucleotides is a general function for CBS domains, or is specific to the γ subunits of AMPK, IMP dehydrogenase (IMPDH) was also studied. Retinitis pigmentosa can be caused by an R224P mutation in the second CBS domain of the IMPDH1 isoform (27). However, the IMPDH2 isoform is 84% identical in amino acid sequence with IMPDH1, and the arginine mutated in retinitis pigmentosa is conserved. Because the IMPDH2 isoform is ubiquitously expressed and a suitable cDNA to use as a template for PCR was more readily available, DNA encoding the single pair of CBS domains from human IMPDH2 was cloned, an R224P mutation was created and expressed both the wild type and the mutant as His-tagged proteins in E. coli.
as §2
(§7) The IMPDH2 constructs were His-tagged and were purified on chelating-Sepharose (Pharmacia) charged with 50 mM CoCl2 according to manufacturer's instructions.
Various concentrations of [^14C]-AMP, [γ^32P] […] Reactions were stopped by spotting 10 ìl onto a Millipore MF Filter Membrane disc and rapidly washing under high vacuum with 1 ml of ice-cold TBS. Radioactivity was determined on the filters by scintillation counting. Non-specific binding (which was trivial) was determined by performing the assay with GST as a control, and was subtracted. […] Data were fitted to the binding models given in the text, using GraphPad Prism 3. […]

IMPDH2 Tetramer (R224P) = biological target: T8, IMPDH2 Tetramer (R224P) (Homo sapiens, UniProt P12268, R224P); assay: Filter binding assay, full-length protein
T8 construct: the full-length protein (1-514); His tag (pHAT20 vector); made in house; host or cells: E. coli
Source text: as §2, §7
(§8) Various concentrations of [^14C]-AMP, [γ^32P] […] Reactions were stopped by spotting 10 ìl onto a Millipore MF Filter Membrane disc and rapidly washing under high vacuum with 1 ml of ice-cold TBS. Radioactivity was determined on the filters by scintillation counting. Non-specific binding (which was trivial) was determined by performing the assay with GST as a control, and was subtracted. […] Data were fitted to the binding models given in the text, using GraphPad Prism 3. Estimates of parameters resulting from fits are quoted in the text and Table 1±standard error, and the curves shown in figures are theoretical curves obtained using those estimates.

IMPDH2 Tetramer (WT) = biological target: T9, IMPDH2 Tetramer (WT) (Homo sapiens, UniProt P12268); assay: Filter binding assay, full-length protein; details: for Kd: read-out: B0.5
T9 construct: the full-length protein (1-514); His tag (pHAT20 vector); made in house; host or cells: E. coli
Source text: as §2, §7, §8

[7] = biological target: T10, full-length IMPDH2 (R224P) (Homo sapiens, UniProt P12268, R224P); assay: Enzymatic assay of IMPDH2; type: biochemical; details: highest concentration used 2 mM
T10 construct: DNAs encoding residues 112-232 or the full-length protein (1-514) were amplified using human liver cDNA; His tag (vector pHAT20); made in house; host or cells: E. coli
Description: (§9) IMPDH2 was assayed by following the increase in absorbance at 340 nm due to formation of NADH in a BMG Fluostar Optima plate reader at 30° C. in plate mode. The assay buffer contained 50 mM Tris/HCl, 100 mM KCl, 1 mM DTT, 3 mM EDTA, and 5 mM MgCl. […] The total volume was 200 μl and the reaction started by addition of IMP (or NAD^+ where [IMP] was the variable).

[8] = biological target: T11, full-length IMPDH2 (wild type) (Homo sapiens, UniProt P12268); assay: Enzymatic assay of IMPDH2; type: biochemical
T11 construct: DNAs encoding residues 112-232 or the full-length protein (1-514) were amplified using human liver cDNA; His tag (vector pHAT20); made in house; host or cells: E. coli
Description: as §9

| Kd (CLC2 CBS1-2 (G715E)) | Kd [1] | EC50 [2] | EC50 [3] | stimulation by AMP [4] | EC50 ([4]; immunoprecipitated from CCL13 cells, slow lysis, read-out: A0.5) | effect of adding AMP on activity [5] | EC50 ([5]; read-out: A0.5) | EC50 [6] | Kd (IMPDH2 CBS1-2 (R224P)) | h (Hill coefficient) (IMPDH2 Tetramer (R224P)) | Kd (IMPDH2 Tetramer (R224P); Hill equation, 4 sites, read-out: B0.5) | h (Hill coefficient) (IMPDH2 Tetramer (WT)) | Kd (IMPDH2 Tetramer (WT); Hill equation, 4 sites) | Kd (IMPDH2 Tetramer (WT)) | effect on activity [7] | Hill coefficient of activation [8] | stimulation of IMPDH activity (Vmax) [8] | EC50 ([8]; read-out: A0.5 for ATP activation, as printed in discussion) | EC50 ([8]; read-out: half-maximal effect) | SMILES |
| --- | --- | --- | --- | --- | --- | --- | --- | --- | --- | --- | --- | --- | --- | --- | --- | --- | --- | --- | --- | --- |
| 10400 ± 1300 µM | 14300 ± 550 µM | 9 ± 4 µM | 95 ± 32 µM | 3 fold | 23 ± 6 µM | inhibited | > 100 µM | 51 ± 40 µM | – | – | – | – | – | – | – | – | – | – | – | Nc1ncnc2c1ncn2[C@@H]1O[C@H](COP(=O)(O)O)[C@@H](O)[C@H]1O [AMP, adenosine monophosphate] |
| – | – | – | – | – | – | – | – | – | 450 ± 36 µM | 0.9 ± 0.1 | 64000 ± 5000 µM | 1.7 and 1.7 ± 0.2 | 770 µM | 760 µM | no effect | 1.3±0.1 | > 4 fold | 440 µM | 440 ± 50 µM | Nc1ncnc2c1ncn2[C@@H]1O[C@H](COP(=O)(O)OP(=O)(O)OP(=O)(O)O)[C@@H](O)[C@H]1O [ATP] |
